# How the values were obtained:
# Rats = assay: Rat social interaction test (withdrawal from chronic treatment with a drug or substance of abuse); type: in vivo; details: rats withdrawn after diazepam 10mg/kg i.p. b.d. for 14 days; test compound 1µg/kg i.p. once daily immediately after withdrawal
# Protocol: The method was based on that described by S. E. File, J. Neurosci. Methods, 1980, 2, 219-238. Rats were treated chronically with diazepam (10mg/kg i.p. b.d.) for 14 days and then withdrawn.
# Alcohol-preferring rats = assay: Alcohol consumption test in rats (computerised drinkometer); type: in vivo, Male Wistar rats; details: 6% v/v ethanol, 0.1µg/kg i.p. once daily for 7 days, 1h prior to the 12h dark cycle
# Protocol: Male Wistar rats, initially weighing 200g, were housed individually in suspended stainless steel cages. The animal colony room was controlled for temperature (22-24°C) and humidity (55%) and was maintained on a 12-hour dark-light cycle which began at 1900 hours. Rats were allowed free access to food, water and ethanol solutions. Water and ethanol solutions were presented in two custom-designed drinkometer tubes mounted on the front of each rat cage. To avoid bias generated by a position preference, the tube positions were randomly reversed on each ethanol presentation. Water and ethanol consumption were continuously monitored daily during the drinking cycle (1900 to 0700h). Minute-to-minute ethanol and water volume consumptions were recorded using a computerised drinkometer system. This system consists of pressure transducers embedded in the base of the drinking tube and accurately detects significant volume changes as small as 0.1ml. Ethanol drinking solutions were prepared by diluting 95% ethyl alcohol with distilled water to form 6% v/v concentrations. From the minute-to-minute volume recordings, the following variables were calculated : total ethanol volume; total ethanol preference; weight-adjusted ethanol volume and total minutes of ethanol drinking activity. […]
compound,measurement,setting,value
"Cc1[nH]cnc1CN1CCc2c(c3ccccc3n2C)C1=O.Cl [test compound, 2,3,4,5-tetrahydro-5-methyl-2-[(5-methyl-1H-imidazol-4-yl)methyl]-1H-pyrido[4,3-b]indol-1-one hydrochloride]",withdrawal response (reduced social interaction),Rats,the withdrawal response was not observed
same,ethanol drinking time,Alcohol-preferring rats,reduced
same,ethanol intake,Alcohol-preferring rats,reduced
